The text below walks through data of patent publication US20220389007A1, “INHIBITORS OF HUMAN IMMUNODEFICIENCY VIRUS REPLICATION” (VIIV HEALTHCARE UK (No. 5) LIMITED, priority 2019, published 2022).

SMILES strings stand for the structures.

Data set [1] can be described thus: Compound cytotoxicity, XTT-based colorimetric assay. Format: cell-based. Particulars: human; uninfected MT2 cells, day 4, XTT assay. An outline of the steps:
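Run under the antiviral-assay protocol but without virus. Viability was read on day 4 and CC50 values were derived from the readout.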

A further data set has as its system recombinant NL4-3 virus. Kind of data set: HIV cell culture assay (antiviral activity, luciferase readout). Format: cell-based. Particulars: Human immunodeficiency virus 1, NL43, MT2, MT-2 cells infected for 4-5 days with recombinant NL4-3 virus carrying Renilla luciferase. An outline of the steps:
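MT-2 cells infected for 4-5 days with NL4-3 reference virus carrying Renilla luciferase in place of part of nef, in presence of serial compound dilutions. Luciferase read with live-cell substrate; EC50 from median effect equation fit.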

Take `Cn1nc(NS(C)(=O)=O)c2c(Cl)ccc(-n3c([C@H](Cc4cc(F)cc(F)c4)NC(=O)Cn4nc(C(F)F)c5c4C(F)(F)[C@@H]4C[C@H]54)nc4nc(-c5ccnn5CC5CC5)ccc4c3=O)c21` (atropisomer, axis not shown; (P)) [Example 78, N-((S)-1-((3P)-3-(4-chloro-1-methyl-3-(methylsulfonamido)-1H-indazol-7-yl)-7-(1-(cyclopropylmethyl)-1H-pyrazol-5-yl)-4-oxo-3,4-dihydropyrido[2,3-d]pyrimidin-2-yl)-2-(3,5-difluorophenyl)ethyl)-2-((3bS,4aR)-3-(difluoromethyl)-5,5-difluoro-3b,4,4a,5-tetrahydro-1H-cyclopropa[3,4]cyclopenta[1,2-c]pyrazol-1-yl)acetamide]: the CC50 at 4 day in data set [1] is above 100 nM. In the data set on recombinant NL4-3 virus, the EC50 was determined as 0.09 nM.

In data set [1], `Cn1nc(NS(C)(=O)=O)c2c(Cl)ccc(-n3c([C@H](Cc4cc(F)cc(F)c4)NC(=O)Cn4nc(C(F)F)c5c4C(F)(F)[C@@H]4C[C@H]54)nc4nc(-c5ccn(CC(F)F)n5)ccc4c3=O)c21` (atropisomer, axis not shown; (P)) [Example 79, N-((S)-1-((3P)-3-(4-chloro-1-methyl-3-(methylsulfonamido)-1H-indazol-7-yl)-7-(1-(2,2-difluoroethyl)-1H-pyrazol-3-yl)-4-oxo-3,4-dihydropyrido[2,3-d]pyrimidin-2-yl)-2-(3,5-difluorophenyl)ethyl)-2-((3bS,4aR)-3-(difluoromethyl)-5,5-difluoro-3b,4,4a,5-tetrahydro-1H-cyclopropa[3,4]cyclopenta[1,2-c]pyrazol-1-yl)acetamide] displayed a CC50 at 4 day above 100 nM. The EC50 in the data set with recombinant NL4-3 virus is 0.047 nM.

`Cn1nc(NS(C)(=O)=O)c2c(Cl)ccc(-n3c([C@H](Cc4cc(F)cc(F)c4)NC(=O)Cn4nc(C(F)F)c5c4C(F)(F)[C@@H]4C[C@H]54)nc4nc(-n5cnc(C(F)(F)F)n5)ccc4c3=O)c21` (atropisomer, axis not shown; (P)) [Example 80, N-((S)-1-((3P)-3-(4-chloro-1-methyl-3-(methylsulfonamido)-1H-indazol-7-yl)-4-oxo-7-(3-(trifluoromethyl)-1H-1,2,4-triazol-1-yl)-3,4-dihydropyrido[2,3-d]pyrimidin-2-yl)-2-(3,5-difluorophenyl)ethyl)-2-((3bS,4aR)-3-(difluoromethyl)-5,5-difluoro-3b,4,4a,5-tetrahydro-1H-cyclopropa[3,4]cyclopenta[1,2-c]pyrazol-1-yl)acetamide]: the CC50 at 4 day in data set [1] is above 100 nM. For the same compound, the EC50 with recombinant NL4-3 virus worked out at 0.028 nM.

On to `Cn1nc(NS(C)(=O)=O)c2c(Cl)ccc(-n3c([C@H](Cc4cc(F)cc(F)c4)NC(=O)Cn4nc(C(F)F)c5c4C(F)(F)[C@@H]4C[C@H]54)nc4nc(-c5ccc6ocnc6c5)ccc4c3=O)c21` (atropisomer, axis not shown; (P)) [Example 81, N-((S)-1-(7-(benzo[d]oxazol-5-yl)-(3P)-3-(4-chloro-1-methyl-3-(methylsulfonamido)-1H-indazol-7-yl)-4-oxo-3,4-dihydropyrido[2,3-d]pyrimidin-2-yl)-2-(3,5-difluorophenyl)ethyl)-2-((3bS,4aR)-3-(difluoromethyl)-5,5-difluoro-3b,4,4a,5-tetrahydro-1H-cyclopropa[3,4]cyclopenta[1,2-c]pyrazol-1-yl)acetamide], for which, in data set [1], the CC50 at 4 day is above 100 nM. Further, the EC50 in the data set on recombinant NL4-3 virus is 0.082 nM.

`COc1ncc(-c2ccc3c(=O)n(-c4ccc(Cl)c5c(NS(C)(=O)=O)nn(C)c45)c([C@H](Cc4cc(F)cc(F)c4)NC(=O)Cn4nc(C(F)F)c5c4C(F)(F)[C@@H]4C[C@H]54)nc3n2)s1` (atropisomer, axis not shown; (P)) [Example 82, N-((S)-1-((3P)-3-(4-chloro-1-methyl-3-(methylsulfonamido)-1H-indazol-7-yl)-7-(2-methoxythiazol-5-yl)-4-oxo-3,4-dihydropyrido[2,3-d]pyrimidin-2-yl)-2-(3,5-difluorophenyl)ethyl)-2-((3bS,4aR)-3-(difluoromethyl)-5,5-difluoro-3b,4,4a,5-tetrahydro-1H-cyclopropa[3,4]cyclopenta[1,2-c]pyrazol-1-yl)acetamide] returned a CC50 at 4 day in data set [1] above 100 nM. Moreover, in the data set with recombinant NL4-3 virus, the EC50 was 0.069 nM.

The compound `Cn1nc(C(F)(F)F)cc1-c1ccc2c(=O)n(-c3ccc(Cl)c4c(NS(C)(=O)=O)nn(C)c34)c([C@H](Cc3cc(F)cc(F)c3)NC(=O)Cn3nc(C(F)F)c4c3C(F)(F)[C@@H]3C[C@H]43)nc2n1` (atropisomer, axis not shown; (P)) [Example 83, N-((S)-1-((3P)-3-(4-chloro-1-methyl-3-(methylsulfonamido)-1H-indazol-7-yl)-7-(1-methyl-3-(trifluoromethyl)-1H-pyrazol-5-yl)-4-oxo-3,4-dihydropyrido[2,3-d]pyrimidin-2-yl)-2-(3,5-difluorophenyl)ethyl)-2-((3bS,4aR)-3-(difluoromethyl)-5,5-difluoro-3b,4,4a,5-tetrahydro-1H-cyclopropa[3,4]cyclopenta[1,2-c]pyrazol-1-yl)acetamide] returned a CC50 at 4 day in data set [1] above 100 nM. Moreover, the EC50 in the data set on recombinant NL4-3 virus was found to be 0.07 nM.

Compound `Cn1nc(NS(C)(=O)=O)c2c(Cl)ccc(-n3c([C@H](Cc4cc(F)cc(F)c4)NC(=O)Cn4nc(C(F)F)c5c4C(F)(F)[C@@H]4C[C@H]54)nc4nc(-c5ccn(CC(F)(F)C(F)F)n5)ccc4c3=O)c21` (atropisomer, axis not shown; (P)) [Example 84, N-((S)-1-((3P)-3-(4-chloro-1-methyl-3-(methylsulfonamido)-1H-indazol-7-yl)-4-oxo-7-(1-(2,2,3,3-tetrafluoropropyl)-1H-pyrazol-3-yl)-3,4-dihydropyrido[2,3-d]pyrimidin-2-yl)-2-(3,5-difluorophenyl)ethyl)-2-((3bS,4aR)-3-(difluoromethyl)-5,5-difluoro-3b,4,4a,5-tetrahydro-1H-cyclopropa[3,4]cyclopenta[1,2-c]pyrazol-1-yl)acetamide] gave a 50% cytotoxic concentration (CC50) at 4 day in data set [1] above 100 nM. In addition, the EC50 in the data set on recombinant NL4-3 virus worked out at 0.041 nM.

With `Cn1nc(NS(C)(=O)=O)c2c(Cl)ccc(-n3c([C@H](Cc4cc(F)cc(F)c4)NC(=O)Cn4nc(C(F)F)c5c4C(F)(F)[C@@H]4C[C@H]54)nc4nc(-c5ccn(CCCC(F)(F)F)n5)ccc4c3=O)c21` (atropisomer, axis not shown; (P)) [Example 85, N-((S)-1-((3P)-3-(4-chloro-1-methyl-3-(methylsulfonamido)-1H-indazol-7-yl)-4-oxo-7-(1-(4,4,4-trifluorobutyl)-1H-pyrazol-3-yl)-3,4-dihydropyrido[2,3-d]pyrimidin-2-yl)-2-(3,5-difluorophenyl)ethyl)-2-((3bS,4aR)-3-(difluoromethyl)-5,5-difluoro-3b,4,4a,5-tetrahydro-1H-cyclopropa[3,4]cyclopenta[1,2-c]pyrazol-1-yl)acetamide], the half-maximal cytotoxic concentration (CC50) at 4 day in data set [1] is above 100 nM. The EC50 in the data set with recombinant NL4-3 virus is 0.096 nM.

In the case of `CCC(F)(F)Cn1ccc(-c2ccc3c(=O)n(-c4ccc(Cl)c5c(NS(C)(=O)=O)nn(C)c45)c([C@H](Cc4cc(F)cc(F)c4)NC(=O)Cn4nc(C(F)F)c5c4C(F)(F)[C@@H]4C[C@H]54)nc3n2)n1` (atropisomer, axis not shown; (P)) [Example 86, N-((S)-1-((3P)-3-(4-chloro-1-methyl-3-(methylsulfonamido)-1H-indazol-7-yl)-7-(1-(2,2-difluorobutyl)-1H-pyrazol-3-yl)-4-oxo-3,4-dihydropyrido[2,3-d]pyrimidin-2-yl)-2-(3,5-difluorophenyl)ethyl)-2-((3bS,4aR)-3-(difluoromethyl)-5,5-difluoro-3b,4,4a,5-tetrahydro-1H-cyclopropa[3,4]cyclopenta[1,2-c]pyrazol-1-yl)acetamide], the CC50 at 4 day in data set [1] was above 100 nM. Further, the 50% effective concentration (EC50) in the data set with recombinant NL4-3 virus was 0.084 nM.

In data set [1], `Cn1nc(NS(C)(=O)=O)c2c(Cl)ccc(-n3c([C@H](Cc4cc(F)cc(F)c4)NC(=O)Cn4nc(C(F)F)c5c4C(F)(F)[C@@H]4C[C@H]54)nc4nc(-c5ccn(CCCF)n5)ccc4c3=O)c21` (atropisomer, axis not shown; (P)) [Example 87, N-((S)-1-((3P)-3-(4-chloro-1-methyl-3-(methylsulfonamido)-1H-indazol-7-yl)-7-(1-(3-fluoropropyl)-1H-pyrazol-3-yl)-4-oxo-3,4-dihydropyrido[2,3-d]pyrimidin-2-yl)-2-(3,5-difluorophenyl)ethyl)-2-((3bS,4aR)-3-(difluoromethyl)-5,5-difluoro-3b,4,4a,5-tetrahydro-1H-cyclopropa[3,4]cyclopenta[1,2-c]pyrazol-1-yl)acetamide] registered a half-maximal cytotoxic concentration (CC50) at 4 day above 100 nM. Moreover, in the data set on recombinant NL4-3 virus, the concentration giving a half-maximal response (EC50) was 0.036 nM.

As for `Cn1nc(NS(C)(=O)=O)c2c(Cl)ccc(-n3c([C@H](Cc4cc(F)cc(F)c4)NC(=O)Cn4nc(C(F)F)c5c4C(F)(F)[C@@H]4C[C@H]54)nc4nc(-c5ccn(CC(F)(F)C(F)(F)F)n5)ccc4c3=O)c21` (atropisomer, axis not shown; (P)) [Example 88, N-((S)-1-((3P)-3-(4-chloro-1-methyl-3-(methylsulfonamido)-1H-indazol-7-yl)-4-oxo-7-(1-(2,2,3,3,3-pentafluoropropyl)-1H-pyrazol-3-yl)-3,4-dihydropyrido[2,3-d]pyrimidin-2-yl)-2-(3,5-difluorophenyl)ethyl)-2-((3bS,4aR)-3-(difluoromethyl)-5,5-difluoro-3b,4,4a,5-tetrahydro-1H-cyclopropa[3,4]cyclopenta[1,2-c]pyrazol-1-yl)acetamide], in data set [1], the CC50 at 4 day was above 100 nM. In addition, in the data set on recombinant NL4-3 virus, the EC50 is 0.079 nM.

A word on the CC50: it is the concentration giving 50% cytotoxicity. Higher therefore signals better tolerance by the cells. As usually defined, the EC50 is the midpoint of the concentration-response curve.
